The target in assay [1] is FGFR4 (Homo sapiens (Human), UniProt P22455). In words: FGFR Enzymatic Assay (FRET peptide phosphorylation), FGFR4.
Text: (§1) The enzymes were purchased from Millipore or Invitrogen.
(§2) GraphPad prism3 was used to analyze the data. The IC50 values were derived by fitting the data to the equation for a sigmoidal dose-response with a variable slope. Y=Bottom+(Top-Bottom)/(1+10^((LogIC50-X)*HillSlope)) where X is the logarithm of concentration and Y is the response.
The target of assay [2] is FGFR2 (Homo sapiens (Human), UniProt P21802). In words: FGFR Enzymatic Assay (FRET peptide phosphorylation), FGFR2. To be noted: IC50 ratio showing FGFR4 selectivity.
Text: as §1, §2
The target of assay [3] is FGFR3 (Homo sapiens (Human), UniProt P22607). In words: FGFR Enzymatic Assay (FRET peptide phosphorylation), FGFR3. The settings on record: IC50 ratio showing FGFR4 selectivity.
Chain of FGFR3 (P22607 23-806): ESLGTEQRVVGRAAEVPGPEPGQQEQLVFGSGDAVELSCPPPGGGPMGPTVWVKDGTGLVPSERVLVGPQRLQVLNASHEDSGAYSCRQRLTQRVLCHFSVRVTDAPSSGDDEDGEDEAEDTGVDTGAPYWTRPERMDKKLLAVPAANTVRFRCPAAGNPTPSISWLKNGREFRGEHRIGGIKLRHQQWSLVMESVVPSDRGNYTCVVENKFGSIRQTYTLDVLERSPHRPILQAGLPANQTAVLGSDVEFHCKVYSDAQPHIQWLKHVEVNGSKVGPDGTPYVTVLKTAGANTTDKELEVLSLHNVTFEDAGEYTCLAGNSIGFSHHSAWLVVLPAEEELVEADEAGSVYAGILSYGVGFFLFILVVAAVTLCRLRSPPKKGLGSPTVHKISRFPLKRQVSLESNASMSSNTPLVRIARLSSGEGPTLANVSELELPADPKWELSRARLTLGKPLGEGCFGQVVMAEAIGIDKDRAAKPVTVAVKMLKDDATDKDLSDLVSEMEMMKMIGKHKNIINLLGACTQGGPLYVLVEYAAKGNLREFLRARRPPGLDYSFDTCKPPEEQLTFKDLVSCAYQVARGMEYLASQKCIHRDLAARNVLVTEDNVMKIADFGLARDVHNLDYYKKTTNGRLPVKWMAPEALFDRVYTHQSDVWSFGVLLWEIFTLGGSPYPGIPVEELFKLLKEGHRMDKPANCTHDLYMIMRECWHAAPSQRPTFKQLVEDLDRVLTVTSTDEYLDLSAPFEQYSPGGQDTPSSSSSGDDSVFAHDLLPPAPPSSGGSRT
Text: as §1, §2
For assay [4], the target named is FGFR1 (Homo sapiens (Human), UniProt P11362). In words: FGFR Enzymatic Assay (FRET peptide phosphorylation), FGFR1. The settings on record: IC50 ratio showing FGFR4 selectivity.
Chain of FGFR1 (P11362 22-822): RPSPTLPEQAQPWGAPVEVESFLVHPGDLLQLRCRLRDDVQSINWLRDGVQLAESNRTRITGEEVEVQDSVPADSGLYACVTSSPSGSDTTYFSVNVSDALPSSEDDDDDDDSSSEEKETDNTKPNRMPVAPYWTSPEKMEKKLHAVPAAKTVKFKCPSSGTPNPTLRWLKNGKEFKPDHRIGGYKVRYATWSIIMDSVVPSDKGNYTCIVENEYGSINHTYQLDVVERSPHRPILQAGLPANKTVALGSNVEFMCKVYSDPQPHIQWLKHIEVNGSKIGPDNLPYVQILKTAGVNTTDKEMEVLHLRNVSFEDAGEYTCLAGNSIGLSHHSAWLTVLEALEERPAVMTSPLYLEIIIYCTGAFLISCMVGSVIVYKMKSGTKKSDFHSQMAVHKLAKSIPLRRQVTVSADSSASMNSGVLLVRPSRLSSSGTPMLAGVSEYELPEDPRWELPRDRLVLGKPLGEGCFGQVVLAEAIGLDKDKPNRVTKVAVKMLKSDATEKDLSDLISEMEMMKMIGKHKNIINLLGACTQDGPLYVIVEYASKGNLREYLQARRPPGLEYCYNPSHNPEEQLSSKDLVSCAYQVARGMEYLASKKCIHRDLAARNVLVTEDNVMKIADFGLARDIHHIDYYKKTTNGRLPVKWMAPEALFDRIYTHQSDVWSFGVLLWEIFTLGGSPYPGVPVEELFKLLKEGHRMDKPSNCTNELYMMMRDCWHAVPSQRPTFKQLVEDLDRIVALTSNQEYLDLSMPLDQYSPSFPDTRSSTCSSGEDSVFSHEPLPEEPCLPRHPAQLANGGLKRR
Text: as §1, §2
Setting [5] is: pre-incubated for 5 to 10 minutes.

Molecules are shown by their SMILES.

Chain of FGFR2 (P21802 22-821): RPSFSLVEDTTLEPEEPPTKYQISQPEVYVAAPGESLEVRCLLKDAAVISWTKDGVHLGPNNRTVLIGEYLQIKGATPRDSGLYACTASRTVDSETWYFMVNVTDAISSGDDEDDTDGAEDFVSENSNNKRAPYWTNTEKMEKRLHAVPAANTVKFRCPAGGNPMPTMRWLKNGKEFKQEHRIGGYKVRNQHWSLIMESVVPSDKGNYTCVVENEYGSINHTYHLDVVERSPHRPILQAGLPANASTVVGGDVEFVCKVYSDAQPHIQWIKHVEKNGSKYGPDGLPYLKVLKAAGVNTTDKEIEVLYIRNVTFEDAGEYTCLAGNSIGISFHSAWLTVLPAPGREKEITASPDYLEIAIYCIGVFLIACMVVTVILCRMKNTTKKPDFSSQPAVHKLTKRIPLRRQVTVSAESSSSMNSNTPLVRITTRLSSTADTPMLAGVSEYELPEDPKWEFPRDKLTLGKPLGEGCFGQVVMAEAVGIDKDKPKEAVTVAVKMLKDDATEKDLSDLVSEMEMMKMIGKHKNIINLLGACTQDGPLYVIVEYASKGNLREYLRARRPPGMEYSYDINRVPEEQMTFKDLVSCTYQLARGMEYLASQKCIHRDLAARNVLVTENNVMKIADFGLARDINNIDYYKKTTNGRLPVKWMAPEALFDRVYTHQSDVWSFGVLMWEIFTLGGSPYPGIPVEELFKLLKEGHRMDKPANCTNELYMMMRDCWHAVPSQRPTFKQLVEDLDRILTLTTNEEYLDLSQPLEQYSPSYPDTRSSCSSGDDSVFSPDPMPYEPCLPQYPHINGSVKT
Chain of FGFR4 (P22455 22-802): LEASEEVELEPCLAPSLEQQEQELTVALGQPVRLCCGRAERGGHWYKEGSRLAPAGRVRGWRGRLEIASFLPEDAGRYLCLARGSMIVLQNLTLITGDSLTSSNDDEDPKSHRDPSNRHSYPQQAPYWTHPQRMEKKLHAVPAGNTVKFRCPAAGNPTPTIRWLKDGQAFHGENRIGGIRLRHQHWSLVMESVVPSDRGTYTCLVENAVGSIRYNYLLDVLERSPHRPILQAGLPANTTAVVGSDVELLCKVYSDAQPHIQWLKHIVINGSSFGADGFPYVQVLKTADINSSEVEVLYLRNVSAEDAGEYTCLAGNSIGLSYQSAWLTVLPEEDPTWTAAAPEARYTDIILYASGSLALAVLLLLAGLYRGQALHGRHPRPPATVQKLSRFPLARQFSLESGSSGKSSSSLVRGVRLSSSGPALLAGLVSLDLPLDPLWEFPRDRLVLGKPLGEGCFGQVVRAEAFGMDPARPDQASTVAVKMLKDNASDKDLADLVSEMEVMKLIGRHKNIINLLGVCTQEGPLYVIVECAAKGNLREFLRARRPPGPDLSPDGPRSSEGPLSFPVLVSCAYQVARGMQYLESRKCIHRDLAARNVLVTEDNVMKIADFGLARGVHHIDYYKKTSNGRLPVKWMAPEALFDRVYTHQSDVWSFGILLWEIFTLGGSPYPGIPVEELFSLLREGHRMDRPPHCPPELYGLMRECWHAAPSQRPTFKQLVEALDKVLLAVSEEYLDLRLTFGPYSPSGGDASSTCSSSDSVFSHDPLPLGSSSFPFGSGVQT

With `C=CC(=O)Nc1cnn(CC(=O)NC)c1-c1cc2c(cn1)CN(c1c(F)c(OC)cc(OC)c1F)C(=O)C21CC1` [Example 20, N-(5-(2′-(2,6-difluoro-3,5-dimethoxyphenyl)-3′-oxo-2′,3′-dihydro-1′H-spiro[cyclopropane-1,4′-[2,7]naphthyridine]-6′-yl)-1-(2-(methylamino)-2-oxoethyl)-1H-pyrazol-4-yl)acrylamide], the IC50 in assay [1] was in the range of 0.01 to 0.03 µM. For the same compound, the FGFR2/FGFR4 in assay [2] (pre-incubated for 4 hours) was more than 100. For the same compound, the FGFR3/FGFR4 in assay [3] (pre-incubated for 4 hours) is listed as more than 100. Moreover, the FGFR1/FGFR4 in assay [4] (pre-incubated for 4 hours) was more than 50.
`C=CC(=O)Nc1cnc(C)c(-c2cc3c(cn2)CN(c2c(F)c(OC)cc(OC)c2F)C(=O)C32CC2)c1` [Example 7, N-(5-(2′-(2,6-difluoro-3,5-dimethoxyphenyl)-3′-oxo-2′,3′-dihydro-1′H-spiro[cyclopropane-1,4′-[2,7]naphthyridine]-6′-yl)-6-methylpyridin-3-yl)acrylamide]: the FGFR2/FGFR4 in assay [2] (setting [5]) and in assay [2] (pre-incubated for 4 hours) was more than 100 in each case. In addition, the FGFR3/FGFR4 in assay [3] (setting [5]) and in assay [3] (pre-incubated for 4 hours) was more than 100 in each case. Also, the FGFR1/FGFR4 in assay [4] (setting [5]) and in assay [4] (pre-incubated for 4 hours) was more than 100 each time.
Take `C=CC(=O)Nc1ccc(C)c(-c2ncc3c(n2)C2(CC2)C(=O)N(c2c(F)c(OC)cc(OC)c2F)C3)c1` [Example 37, N-(3-(6′-(2,6-difluoro-3,5-dimethoxyphenyl)-7′-oxo-6′,7′-dihydro-5′H-spiro[cyclopropane-1,8′-pyrido[4,3-d]pyrimidine]-2′-yl)-4-methylphenyl)acrylamide]: the FGFR2/FGFR4 in assay [2] (pre-incubated for 4 hours) is on record as more than 100. In addition, the FGFR3/FGFR4 in assay [3] (pre-incubated for 4 hours) is more than 100. Moreover, the FGFR1/FGFR4 in assay [4] (pre-incubated for 4 hours) was more than 100.
On to `C=CC(=O)Nc1cnn(CCO)c1-c1cc2c(cn1)CN(c1c(F)c(OC)cc(OC)c1F)C(=O)C21CC1` [Example 17, N-(5-(2′-(2,6-difluoro-3,5-dimethoxyphenyl)-3′-oxo-2′,3′-dihydro-1′H-spiro[cyclopropane-1,4′-[2,7]naphthyridine]-6′-yl)-1-(2-hydroxyethyl)-1H-pyrazol-4-yl)acrylamide], for which the FGFR2/FGFR4 in assay [2] (pre-incubated for 4 hours) is on record as more than 100. In assay [3] (pre-incubated for 4 hours), the FGFR3/FGFR4 is more than 100. Moreover, the FGFR1/FGFR4 in assay [4] (pre-incubated for 4 hours) is listed as more than 100.
As for `C=CC(=O)Nc1cn(CC2CCOCC2)nc1-c1cc2c(cn1)CN(c1c(F)c(OC)cc(OC)c1F)C(=O)C21CC1` [Example 35, N-(3-(2′-(2,6-difluoro-3,5-dimethoxyphenyl)-3′-oxo-2′,3′-dihydro-1′H-spiro[cyclopropane-1,4′-[2,7]naphthyridine]-6′-yl)-1-((tetrahydro-2H-pyran-4-yl)methyl)-1H-pyrazol-4-yl)acrylamide], the FGFR2/FGFR4 in assay [2] (pre-incubated for 4 hours) was more than 100. For the same compound, the FGFR3/FGFR4 in assay [3] (pre-incubated for 4 hours) is more than 100. For the same compound, the FGFR1/FGFR4 in assay [4] (pre-incubated for 4 hours) is reported as more than 100.
Turning to `C=CC(=O)Nc1cn(CCOC)nc1-c1cc2c(cn1)CN(c1c(F)c(OC)cc(OC)c1F)C(=O)C21CC1` [Example 32, N-(3-(2′-(2,6-difluoro-3,5-dimethoxyphenyl)-3′-oxo-2′,3′-dihydro-1′H-spiro[cyclopropane-1,4′-[2,7]naphthyridine]-6′-yl)-1-(2-methoxyethyl)-1H-pyrazol-4-yl)acrylamide], the FGFR2/FGFR4 in assay [2] (pre-incubated for 4 hours) is more than 100. For the same compound, the FGFR3/FGFR4 in assay [3] (pre-incubated for 4 hours) is more than 100. In addition, in assay [4] (pre-incubated for 4 hours), the FGFR1/FGFR4 is recorded as more than 100.
Take `C=CC(=O)Nc1cnn(C[C@H]2CCCO2)c1-c1cc2c(cn1)CN(c1c(F)c(OC)cc(OC)c1F)C(=O)C21CC1` [Example 30]: the FGFR2/FGFR4 in assay [2] (pre-incubated for 4 hours) was more than 100. Besides, the FGFR3/FGFR4 in assay [3] (pre-incubated for 4 hours) is recorded as more than 100. The FGFR1/FGFR4 in assay [4] (pre-incubated for 4 hours) is reported as more than 100.
On to `C=CC(=O)Nc1cn(CCN2CCOCC2)nc1-c1cc2c(cn1)CN(c1c(F)c(OC)cc(OC)c1F)C(=O)C21CC1` [Example 34, N-(3-(2′-(2,6-difluoro-3,5-dimethoxyphenyl)-3′-oxo-2′,3′-dihydro-1′H-spiro[cyclopropane-1,4′-[2,7]naphthyridine]-6′-yl)-1-(2-morpholinoethyl)-1H-pyrazol-4-yl)acrylamide], for which the FGFR2/FGFR4 in assay [2] (pre-incubated for 4 hours) is given as more than 100. The FGFR3/FGFR4 in assay [3] (pre-incubated for 4 hours) was more than 100. The FGFR1/FGFR4 in assay [4] (pre-incubated for 4 hours) is recorded as more than 100.
As to `C=CC(=O)Nc1cn(CCOC(F)(F)F)nc1-c1cc2c(cn1)CN(c1c(F)c(OC)cc(OC)c1F)C(=O)C21CC1` [Example 33, N-(3-(2′-(2,6-difluoro-3,5-dimethoxyphenyl)-3′-oxo-2′,3′-dihydro-1′H-spiro[cyclopropane-1,4′-[2,7]naphthyridine]-6′-yl)-1-(2-(trifluoromethoxy)ethyl)-1H-pyrazol-4-yl)acrylamide], the FGFR2/FGFR4 in assay [2] (pre-incubated for 4 hours) was more than 100. Besides, the FGFR3/FGFR4 in assay [3] (pre-incubated for 4 hours) is listed as more than 100. Besides, the FGFR1/FGFR4 in assay [4] (pre-incubated for 4 hours) is reported as more than 100.
In the case of `C=CC(=O)Nc1cnn(Cc2ncn(C)n2)c1-c1cc2c(cn1)CN(c1c(F)c(OC)cc(OC)c1F)C(=O)C21CC1` [Example 23, N-(5-(2′-(2,6-difluoro-3,5-dimethoxyphenyl)-3′-oxo-2′,3′-dihydro-1′H-spiro[cyclopropane-1,4′-[2,7]naphthyridine]-6′-yl)-1-((1-methyl-1H-1,2,4-triazol-3-yl)methyl)-1H-pyrazol-4-yl)acrylamide], the FGFR2/FGFR4 in assay [2] (pre-incubated for 4 hours) was more than 100. In addition, in assay [3] (pre-incubated for 4 hours), the FGFR3/FGFR4 was more than 100. For the same compound, the FGFR1/FGFR4 in assay [4] (pre-incubated for 4 hours) is recorded as more than 100.
For `C=CC(=O)Nc1cnn(C[C@@H]2CCCO2)c1-c1cc2c(cn1)CN(c1c(F)c(OC)cc(OC)c1F)C(=O)C21CC1` [Example 31, (S)-N-(5-(2′-(2,6-difluoro-3,5-dimethoxyphenyl)-3′-oxo-2′,3′-dihydro-1′H-spiro[cyclopropane-1,4′-[2,7]naphthyridine]-6′-yl)-1-((tetrahydrofuran-2-yl)methyl)-1H-pyrazol-4-yl)acrylamide], the FGFR2/FGFR4 in assay [2] (pre-incubated for 4 hours) is given as more than 100. Also, in assay [3] (pre-incubated for 4 hours), the FGFR3/FGFR4 was more than 100. Also, the FGFR1/FGFR4 in assay [4] (pre-incubated for 4 hours) is recorded as more than 100.
In the case of `C=CC(=O)Nc1cnn(Cc2ccnn2C)c1-c1cc2c(cn1)CN(c1c(F)c(OC)cc(OC)c1F)C(=O)C21CC1` [Example 26, N-(5-(2′-(2,6-difluoro-3,5-dimethoxyphenyl)-3′-oxo-2′,3′-dihydro-1′H-spiro[cyclopropane-1,4′-[2,7]naphthyridine]-6′-yl)-1-((1-methyl-1H-pyrazol-5-yl)methyl)-1H-pyrazol-4-yl)acrylamide], the FGFR2/FGFR4 in assay [2] (pre-incubated for 4 hours) was more than 50. Moreover, the FGFR3/FGFR4 in assay [3] (pre-incubated for 4 hours) was more than 100. For the same compound, in assay [4] (pre-incubated for 4 hours), the FGFR1/FGFR4 is reported as more than 100.
Take `C=CC(=O)Nc1cnn(CCOC)c1-c1cc2c(cn1)CN(c1c(F)c(OC)cc(OC)c1F)C(=O)C21CC1` [Example 15, N-(5-(2′-(2,6-difluoro-3,5-dimethoxyphenyl)-3′-oxo-2′,3′-dihydro-1′H-spiro[cyclopropane-1,4′-[2,7]naphthyridine]-6′-yl)-1-(2-methoxyethyl)-1H-pyrazol-4-yl)acrylamide]: the FGFR2/FGFR4 in assay [2] (pre-incubated for 4 hours) is recorded as more than 100. The FGFR3/FGFR4 in assay [3] (pre-incubated for 4 hours) is more than 100. In addition, the FGFR1/FGFR4 in assay [4] (pre-incubated for 4 hours) is more than 100.
`C=CC(=O)Nc1cc(-c2cc3c(cn2)CN(c2c(F)c(OC)cc(OC)c2F)C(=O)C32CC2)c(C)cc1F` [Example 6, N-(5-(2′-(2,6-difluoro-3,5-dimethoxyphenyl)-3′-oxo-2′,3′-dihydro-1′H-spiro[cyclopropane-1,4′-[2,7]naphthyridine]-6′-yl)-2-fluoro-4-methylphenyl)acrylamide]: the FGFR2/FGFR4 in assay [2] (setting [5]) and in assay [2] (pre-incubated for 4 hours) was more than 100 each time. Also, the FGFR3/FGFR4 in assay [3] (setting [5]) and in assay [3] (pre-incubated for 4 hours) was more than 100 in each case. Moreover, the FGFR1/FGFR4 in assay [4] (setting [5]) and in assay [4] (pre-incubated for 4 hours) was more than 100 throughout.

One may read the IC50 as the concentration needed to halve the response being measured. Higher therefore signals weaker potency in that assay.

The values are drawn from US9801889B2, “Bicyclic heterocycles as FGFR4 inhibitors” (Incyte Corporation, priority 2015, dated 2017).
